In patent publication US10065970B2 (Genentech, Inc., priority 2015, dated 2018):
pKi: −log10 of the molar value.

These molecules were tested against PI3Kα (alpha) (Homo sapiens (Human), UniProt P42336) (assay: p110α (alpha) PI3K Binding Assay (ADP-Glo lipid kinase reaction)). Conditions: PI3K alpha 0.2 nM, ATP 40 μM, PIP2:3PS 50 μM, 120 min, room temperature; Ki by Morrison Equation; read-out: PI3Kα-(alpha) ATP (Ki) micromolar.
PI3Kα (alpha), sequence (P42336 whole entry): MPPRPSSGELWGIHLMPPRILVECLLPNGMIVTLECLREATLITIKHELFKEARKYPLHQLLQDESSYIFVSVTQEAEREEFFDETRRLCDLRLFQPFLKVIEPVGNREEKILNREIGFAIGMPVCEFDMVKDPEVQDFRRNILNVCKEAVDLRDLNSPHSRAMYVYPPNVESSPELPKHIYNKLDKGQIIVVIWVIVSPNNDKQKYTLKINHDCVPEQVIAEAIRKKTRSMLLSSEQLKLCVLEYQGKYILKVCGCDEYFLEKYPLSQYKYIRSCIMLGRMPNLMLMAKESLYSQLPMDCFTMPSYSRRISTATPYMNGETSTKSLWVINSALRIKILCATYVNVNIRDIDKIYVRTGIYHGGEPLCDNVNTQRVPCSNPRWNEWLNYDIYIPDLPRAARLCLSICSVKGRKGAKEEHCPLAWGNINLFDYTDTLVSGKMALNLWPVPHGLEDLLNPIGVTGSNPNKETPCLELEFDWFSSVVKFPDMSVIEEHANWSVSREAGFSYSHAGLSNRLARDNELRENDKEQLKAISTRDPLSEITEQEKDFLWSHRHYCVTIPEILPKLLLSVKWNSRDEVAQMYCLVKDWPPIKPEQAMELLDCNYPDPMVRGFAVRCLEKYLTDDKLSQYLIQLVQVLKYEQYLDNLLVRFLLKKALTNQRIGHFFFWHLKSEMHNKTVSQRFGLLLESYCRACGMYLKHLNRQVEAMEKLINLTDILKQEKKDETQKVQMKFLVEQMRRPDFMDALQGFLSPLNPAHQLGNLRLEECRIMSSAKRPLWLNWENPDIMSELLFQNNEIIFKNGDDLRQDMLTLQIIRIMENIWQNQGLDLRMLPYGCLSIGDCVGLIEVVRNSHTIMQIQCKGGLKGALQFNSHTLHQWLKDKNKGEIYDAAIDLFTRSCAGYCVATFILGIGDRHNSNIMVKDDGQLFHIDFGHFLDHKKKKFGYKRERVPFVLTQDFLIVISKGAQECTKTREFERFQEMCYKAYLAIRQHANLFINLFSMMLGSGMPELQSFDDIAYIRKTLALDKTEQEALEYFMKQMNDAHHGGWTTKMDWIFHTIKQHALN
PI3Kα (alpha), sequence (P27986 whole entry partner): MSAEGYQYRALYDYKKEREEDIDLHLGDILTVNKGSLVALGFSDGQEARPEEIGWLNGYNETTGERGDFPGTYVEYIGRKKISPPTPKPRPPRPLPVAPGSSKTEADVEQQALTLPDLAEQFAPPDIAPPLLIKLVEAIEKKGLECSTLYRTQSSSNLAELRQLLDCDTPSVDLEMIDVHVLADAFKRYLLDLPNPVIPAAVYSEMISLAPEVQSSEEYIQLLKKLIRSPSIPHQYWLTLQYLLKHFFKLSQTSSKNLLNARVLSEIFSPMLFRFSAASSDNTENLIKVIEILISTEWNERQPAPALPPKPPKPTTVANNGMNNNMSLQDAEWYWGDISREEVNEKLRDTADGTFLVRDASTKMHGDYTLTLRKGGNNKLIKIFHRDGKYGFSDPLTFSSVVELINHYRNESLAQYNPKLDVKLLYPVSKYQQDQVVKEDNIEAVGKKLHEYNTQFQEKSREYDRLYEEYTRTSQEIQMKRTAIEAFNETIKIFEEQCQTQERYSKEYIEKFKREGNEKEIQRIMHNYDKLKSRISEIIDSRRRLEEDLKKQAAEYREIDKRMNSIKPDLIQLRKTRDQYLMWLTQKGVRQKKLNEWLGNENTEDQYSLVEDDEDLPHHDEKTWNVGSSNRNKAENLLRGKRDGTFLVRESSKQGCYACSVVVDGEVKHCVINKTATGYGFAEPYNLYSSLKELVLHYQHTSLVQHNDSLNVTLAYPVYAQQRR
Type: biochemical
Method in brief: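 Enzyme with PIP2:3PS lipid substrate and ATP/MgCl2 in 50 mM HEPES, 50 mM NaCl, 3 mM MgCl2, 0.01% BSA, 1% DMSO, 120 min at room temperature. ADP formed detected by ADP-Glo luminescence. Ki from 10-point dose-response curves via the Morrison equation.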
With `C[C@H](Oc1cc2c3c(c1)nc(-c1cc(F)c4oc(N)nc4c1)n3CCCCO2)C(N)=O` [Example 249, (S)-2-((1-(2-Amino-7-fluorobenzo[d]oxazol-5-yl)-7,8,9,10-tetrahydro-6-oxa-2,10a-diazacycloocta[cd]inden-4-yl)oxy)propanamide] the pKi was greater than 10.70.
Molecule `NC(=O)[C@@H]1CCCN1c1cc2c3c(c1)nc(-c1ccc4oc(N)nc4c1)n3CCCCO2` [Example 250, (S)-1-(1-(2-Aminobenzo[d]oxazol-5-yl)-7,8,9,10-tetrahydro-6-oxa-2,10a-diazacycloocta[cd]inden-4-yl)pyrrolidine-2-carboxamide] has a pKi greater than 10.70.
For `C[C@@H]1Cn2c(-c3ccc4oc(N)nc4c3)nc3cc(O[C@H](C)C(N)=O)cc(c32)O1` [Example 251, (R)-2-(((R)-2-(2-Aminobenzo[d]oxazol-5-yl)-4-methyl-3,4-dihydro-5-oxa-1,2a-diazaacenaphthylen-7-yl)oxy)propanamide], the pKi was 8.64.
`C[C@@H]1Cn2c(-c3ccc4oc(N)nc4c3)nc3cc(O[C@@H](C)C(N)=O)cc(c32)O1` [Example 252, (S)-2-(((R)-2-(2-Aminobenzo[d]oxazol-5-yl)-4-methyl-3,4-dihydro-5-oxa-1,2a-diazaacenaphthylen-7-yl)oxy)propanamide] was tested, and the pKi was 9.66.
For `Nc1nc2cc(-n3nc4cc(Br)cc5c4c3CCCO5)ccc2o1` [Example 253, 5-(4-Bromo-8,9-dihydrooxepino[4,3,2-cd]indazol-1(7H)-yl)benzo[d]oxazol-2-amine], the pKi was 7.29.
For `C[C@@H](C(N)=O)N(C)c1cc2c3c(c1)nc(-c1ccc4oc(N)nc4c1)n3CCCCO2` [Example 254, (S)-2-((1-(2-Aminobenzo[d]oxazol-5-yl)-7,8,9,10-tetrahydro-6-oxa-2,10a-diazacycloocta[cd]inden-4-yl)(methyl)amino)propanamide], the pKi was greater than 10.70.
In the case of `C[C@@H](C(N)=O)N(C)c1cc2c3c(c1)nc(-c1ccc4nc(N)sc4c1)n3CCCCO2` [Example 255, (S)-2-((1-(2-Aminobenzo[d]thiazol-6-yl)-7,8,9,10-tetrahydro-6-oxa-2,10a-diazacycloocta[cd]inden-4-yl)(methyl)amino)propanamide], the pKi was 9.83.
For `C[C@H](Oc1cc2c3c(c1)nc(-c1cc(F)c4oc(N)nc4c1)n3CCCO2)C(N)=O` [Example 258, (S)-2-((1-(2-Amino-7-fluorobenzo[d]oxazol-5-yl)-8,9-dihydro-7H-6-oxa-2,9a-diazabenzo[cd]azulen-4-yl)oxy)propanamide], the pKi was 10.05.
`C[C@H](Oc1cc2c3c(c1)nc(-c1cc(F)c4oc(N)nc4c1F)n3CCCCO2)C(N)=O` [Example 261, (S)-2-((1-(2-Amino-4,7-difluorobenzo[d]oxazol-5-yl)-7,8,9,10-tetrahydro-6-oxa-2,10a-diazacycloocta[cd]inden-4-yl)oxy)propanamide] showed a pKi greater than 10.70.
`NC(=O)[C@@H]1COCCN1c1cc2c3c(c1)nc(-c1ccc4nc(N)sc4c1)n3CCCCO2` [Example 262, (S)-4-(1-(2-Aminobenzo[d]thiazol-6-yl)-7,8,9,10-tetrahydro-6-oxa-2,10a-diazacycloocta[cd]inden-4-yl)morpholine-3-carboxamide] showed a pKi of 8.71.
Work on `C[C@@H](Oc1cc2c3c(c1)nc(-c1cc(F)c4oc(N)nc4c1)n3CCCO2)C(N)=O` [Example 263, (R)-2-((1-(2-Amino-7-fluorobenzo[d]oxazol-5-yl)-8,9-dihydro-7H-6-oxa-2,9a-diazabenzo[cd]azulen-4-yl)oxy)propanamide] yielded a pKi of 9.46.
Work on `C[C@@H](C(N)=O)N(C)c1cc2c3c(c1)nc(-c1cc(F)c4oc(N)nc4c1)n3CCCCO2` [Example 264, (S)-2-((1-(2-Amino-7-fluorobenzo[d]oxazol-5-yl)-7,8,9,10-tetrahydro-6-oxa-2,10a-diazacycloocta[cd]inden-4-yl)(methyl)amino)propanamide] yielded a pKi greater than 10.70.
With `C[C@H](Oc1cc2c3c(c1)nc(-c1ccc4nc(N)sc4n1)n3CCCCO2)C(N)=O` [Example 265, (S)-2-((1-(2-Aminothiazolo[5,4-b]pyridin-5-yl)-7,8,9,10-tetrahydro-6-oxa-2,10a-diazacycloocta[cd]inden-4-yl)oxy)propanamide] the pKi was greater than 10.70.
Work on `C[C@H](Oc1cc2c3c(c1)nc(-c1ccc4oc(N)nc4n1)n3CCCO2)C(N)=O` [Example 266, (S)-2-((1-(2-Aminooxazolo[4,5-b]pyridin-5-yl)-8,9-dihydro-7H-6-oxa-2,9a-diazabenzo[cd]azulen-4-yl)oxy)propanamide] yielded a pKi of 9.97.
`C[C@H](Oc1cc2c3c(c1)nc(-c1ccc(-c4nc[nH]n4)c(F)c1)n3CCCCO2)C(N)=O` [Example 269, (S)-2-((1-(3-Fluoro-4-(1H-1,2,4-triazol-3-yl)phenyl)-7,8,9,10-tetrahydro-6-oxa-2,10a-diazacycloocta[cd]inden-4-yl)oxy)propanamide] showed a pKi greater than 10.70.
Molecule `CC[C@H](Oc1cc2c3c(c1)nc(-c1ccc4oc(N)nc4c1)n3CCCCO2)C(N)=O` [Example 271, (S)-2-((1-(2-Aminobenzo[d]oxazol-5-yl)-7,8,9,10-tetrahydro-6-oxa-2,10a-diazacycloocta[cd]inden-4-yl)oxy)butanamide] has a pKi greater than 10.70.
Work on `CC[C@H](Oc1cc2c3c(c1)nc(-c1cc(F)c4oc(N)nc4c1)n3CCCCO2)C(N)=O` [Example 272, (S)-2-((1-(2-Amino-7-fluorobenzo[d]oxazol-5-yl)-7,8,9,10-tetrahydro-6-oxa-2,10a-diazacycloocta[cd]inden-4-yl)oxy)butanamide] yielded a pKi greater than 10.70.
`CC[C@H](Oc1cc2c3c(c1)nc(-c1cc(F)c4nc(N)sc4c1)n3CCCCO2)C(N)=O` [Example 273, (S)-2-((1-(2-Amino-4-fluorobenzo[d]thiazol-6-yl)-7,8,9,10-tetrahydro-6-oxa-2,10a-diazacycloocta[cd]inden-4-yl)oxy)butanamide] showed a pKi of 10.31.
`C[C@H](Oc1cc2c3c(c1)nc(-c1ccc4nc(N)sc4c1)n3CCCO2)C(N)=O` [Example 274, (S)-2-((1-(2-Aminobenzo[d]thiazol-6-yl)-8,9-dihydro-7H-6-oxa-2,9a-diazabenzo[cd]azulen-4-yl)oxy)propanamide] was tested, and the pKi was 8.68.
For `C[C@H](Oc1cc2c3c(c1)nc(-c1cc(F)c4sc(N)nc4c1)n3CCCCO2)C(N)=O` [Example 285, (S)-2-((1-(2-Amino-7-fluorobenzo[d]thiazol-5-yl)-7,8,9,10-tetrahydro-6-oxa-2,10a-diazacycloocta[cd]inden-4-yl)oxy)propanamide], the pKi was 10.21.
Molecule `C[C@H](Oc1cc2c3c(c1)nc(-c1ccc4nc(N)nnc4c1)n3CCCCO2)C(N)=O` [Example 292, (S)-2-((1-(3-Aminobenzo[e][1,2,4]triazin-7-yl)-7,8,9,10-tetrahydro-6-oxa-2,10a-diazacycloocta[cd]inden-4-yl)oxy)propanamide] has a pKi of 10.62.
In the case of `C[C@H](Oc1cc2c3c(c1)nc(-c1ccc(-c4ncn[nH]4)cc1F)n3CCCCO2)C(N)=O` [Example 293, (S)-2-((1-(2-Fluoro-4-(1H-1,2,4-triazol-3-yl)phenyl)-7,8,9,10-tetrahydro-6-oxa-2,10a-diazacycloocta[cd]inden-4-yl)oxy)propanamide], the pKi was 10.65.
`NC(=O)[C@@H]1[C@@H](F)CCN1c1cc2c3c(c1)nc(-c1ccc4oc(N)nc4c1)n3CCCCO2` [Example 294, (2R,3S)-1-(1-(2-Aminobenzo[d]oxazol-5-yl)-7,8,9,10-tetrahydro-6-oxa-2,10a-diazacycloocta[cd]inden-4-yl)-3-fluoropyrrolidine-2-carboxamide] gave a pKi greater than 10.70.
With `CC[C@H](Oc1cc2c3c(c1)nc(-c1cc(F)c(-c4ncn[nH]4)cc1F)n3CCCCO2)C(N)=O` [Example 295, (S)-2-((1-(2,5-Difluoro-4-(1H-1,2,4-triazol-5-yl)phenyl)-7,8,9,10-tetrahydro-6-oxa-2,10a-diazacycloocta[cd]inden-4-yl)oxy)butanamide] the pKi was 10.28.
Molecule `C[C@H](Oc1cc2c3c(c1)nc(-c1ccc(-c4ncn[nH]4)cn1)n3CCCCO2)C(N)=O` [Example 296, (S)-2-((1-(5-(1H-1,2,4-Triazol-5-yl)pyridin-2-yl)-7,8,9,10-tetrahydro-6-oxa-2,10a-diazacycloocta[cd]inden-4-yl)oxy)propanamide] has a pKi greater than 10.70.
Work on `C[C@H](Oc1cc2c3c(c1)nc(-c1ccc4oc(N)nc4c1)n3CCCCO2)C(=O)O` [Example 297, (S)-2-((1-(2-Aminobenzo[d]oxazol-5-yl)-7,8,9,10-tetrahydro-6-oxa-2,10a-diazacycloocta[cd]inden-4-yl)oxy)propanoic acid] yielded a pKi of 8.65.
`C[C@H](Oc1cc2c3c(c1)nc(-c1cnc(-c4ncn[nH]4)c(F)c1)n3CCCCO2)C(N)=O` [Example 307, (S)-2-((1-(5-Fluoro-6-(1H-1,2,4-triazol-5-yl)pyridin-3-yl)-7,8,9,10-tetrahydro-6-oxa-2,10a-diazacycloocta[cd]inden-4-yl)oxy)propanamide] showed a pKi greater than 10.70.
`C[C@H]1CCN(c2cc3c4c(c2)nc(-c2ccc5oc(N)nc5c2)n4CCCCO3)[C@@H]1C(N)=O` [Example 309, (2S,3S)-1-(1-(2-Aminobenzo[d]oxazol-5-yl)-7,8,9,10-tetrahydro-6-oxa-2,10a-diazacycloocta[cd]inden-4-yl)-3-methylpyrrolidine-2-carboxamide] was tested, and the pKi was 10.40.
`CO[C@@H]1CCN(c2cc3c4c(c2)nc(-c2ccc5oc(N)nc5c2)n4CCCCO3)[C@@H]1C(N)=O` [Example 310, (2S,3R)-1-(1-(2-Aminobenzo[d]oxazol-5-yl)-7,8,9,10-tetrahydro-6-oxa-2,10a-diazacycloocta[cd]inden-4-yl)-3-methoxypyrrolidine-2-carboxamide] was tested, and the pKi was 9.77.

Same assay, conditions: read-out: PI3Kα-(alpha) ATP (Ki) micromolar
`C[C@H]1CCN(c2cc3c4c(c2)nc(-c2ccc5oc(N)nc5c2)n4CCCO3)[C@@H]1C(N)=O` [Example 308, (2S,3S)-1-(1-(2-Aminobenzo[d]oxazol-5-yl)-8,9-dihydro-7H-6-oxa-2,9a-diazabenzo[cd]azulen-4-yl)-3-methylpyrrolidine-2-carboxamide] showed a pKi of 9.20.
